Assay results from ChEMBL document CHEMBL1201862, “PubChem BioAssay data set” (2004).
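Each compound was tested at five concentrations against cells in 96-well plates for 48 hours. Abbreviation: GI50, concentration required for 50% inhibition of growth.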 Active and inactive are the calls of the source. No stated cut-off is given here; in the data, active = GI50 up to about 1.1 µM and inactive = higher.

Key:
Test in all cases: inhibition of tumour cell growth, NCI panel, 48 h
786-0 = test system: 786-0
A498 = test system: A498
A549 = test system: A549
ACHN = test system: ACHN
BT-549 = test system: BT-549
CAKI-1 = test system: CAKI-1
CCRF-CEM = test system: CCRF-CEM
COLO 205 = test system: COLO 205
DU-145 = test system: DU-145
EKVX = test system: EKVX
HCC 2998 = test system: HCC 2998
HCT-116 = test system: HCT-116
HCT-15 = test system: HCT-15
HL-60 = test system: HL-60
HOP-62 = test system: HOP-62
HOP-92 = test system: HOP-92
HT-29 = test system: HT-29
Hs-578T = test system: Hs-578T
IGROV-1 = test system: IGROV-1
K562 = test system: K562
KM12 = test system: KM12
M14 = test system: M14
MCF7 = test system: MCF7
MDA-MB-231 = test system: MDA-MB-231
MDA-MB-435 = test system: MDA-MB-435
MOLT-4 = test system: MOLT-4
Malme-3M = test system: Malme-3M
NCI-H226 = test system: NCI-H226
NCI-H23 = test system: NCI-H23
NCI-H460 = test system: NCI-H460
NCI-H522 = test system: NCI-H522
NCI/ADR-RES = test system: NCI/ADR-RES
OVCAR-3 = test system: OVCAR-3
OVCAR-4 = test system: OVCAR-4
OVCAR-5 = test system: OVCAR-5
OVCAR-8 = test system: OVCAR-8
PC-3 = test system: PC-3
RPMI-8226 = test system: RPMI-8226
RXF 393 = test system: RXF 393
SF-268 = test system: SF-268
SF-295 = test system: SF-295
SF-539 = test system: SF-539
SK-MEL-28 = test system: SK-MEL-28
SK-MEL-2 = test system: SK-MEL-2
SK-MEL-5 = test system: SK-MEL-5
SK-OV-3 = test system: SK-OV-3
SN12C = test system: SN12C
SNB-19 = test system: SNB-19
SR = test system: SR
T47D = test system: T47D
TK-10 = test system: TK-10
U-251 = test system: U-251
UACC-257 = test system: UACC-257
UACC-62 = test system: UACC-62
UO-31 = test system: UO-31
MDA-N = test system: MDA-N
SNB-75 = test system: SNB-75
SW-620 = test system: SW-620

Measured: GI50

COc1ccc(/C=C(\C#N)c2nc(N)nc(N3N=C(C)CC3(C)C)n2)c(O)c1
17.7 µM: HCT-15
inactive: 786-0 16.4 µM | A498 28.4 µM | A549 18.8 µM | ACHN 17.1 µM | BT-549 34 µM | CAKI-1 17.2 µM | CCRF-CEM 40.2 µM | COLO 205 17 µM | DU-145 16.7 µM | EKVX 20.5 µM | HCC 2998 19.2 µM | HCT-116 17.6 µM | HL-60 16.5 µM | HOP-62 24.1 µM | HOP-92 31.5 µM | HT-29 19.2 µM | Hs-578T 18.3 µM | IGROV-1 24 µM | K562 21.3 µM | KM12 15.6 µM | M14 20.3 µM | MCF7 18.5 µM | MDA-MB-231 17.8 µM | MDA-MB-435 16.9 µM | MOLT-4 13.1 µM | Malme-3M 14.4 µM | NCI-H226 16.7 µM | NCI-H23 18.8 µM | NCI-H460 17.3 µM | NCI-H522 21.7 µM | NCI/ADR-RES 31 µM | OVCAR-3 15 µM | OVCAR-4 15.8 µM | OVCAR-5 15.3 µM | OVCAR-8 32.7 µM | PC-3 37.9 µM | RPMI-8226 41.3 µM | RXF 393 16.1 µM | SF-268 17.2 µM | SF-295 19.1 µM | SF-539 15.7 µM | SK-MEL-28 14.5 µM | SK-MEL-2 20.7 µM | SK-MEL-5 15.2 µM | SK-OV-3 26.9 µM | SN12C 26.8 µM | SNB-19 35.1 µM | SR 16.9 µM | T47D 15.9 µM | TK-10 30.2 µM | U-251 26.7 µM | UACC-257 24 µM | UACC-62 17.4 µM | UO-31 17.3 µM

CCOC(=O)/C(=C\c1cn(C(C)=O)c2ccccc12)P(C)(=O)OCC (stereo not drawn)
28.8 µM: HCT-15
inactive: 786-0 39.5 µM | A498 28.8 µM | A549 37.1 µM | ACHN 26 µM | BT-549 22.3 µM | CAKI-1 46.2 µM | CCRF-CEM 57.3 µM | COLO 205 54.5 µM | DU-145 25.9 µM | EKVX 33.3 µM | HCC 2998 27.9 µM | HCT-116 26.2 µM | HL-60 > 100 µM | HOP-62 33.2 µM | HOP-92 17.2 µM | HT-29 39.9 µM | IGROV-1 16.8 µM | K562 > 100 µM | KM12 33.1 µM | M14 16.7 µM | MCF7 32.8 µM | MDA-MB-231 27.4 µM | MDA-MB-435 31.8 µM | MDA-N 24.8 µM | MOLT-4 > 100 µM | Malme-3M 17.3 µM | NCI-H522 19.2 µM | NCI/ADR-RES 20.4 µM | OVCAR-3 28.5 µM | OVCAR-5 68.7 µM | OVCAR-8 33.4 µM | PC-3 52.5 µM | RPMI-8226 > 100 µM | SF-268 21.1 µM | SF-295 41.8 µM | SF-539 19.8 µM | SK-MEL-28 64.7 µM | SK-MEL-2 39.8 µM | SK-MEL-5 47.5 µM | SK-OV-3 27.1 µM | SN12C 26.8 µM | SNB-19 49.9 µM | SNB-75 11 µM | SR > 100 µM | SW-620 39.2 µM | T47D 37.2 µM | U-251 40.1 µM | UACC-62 60 µM | UO-31 32.3 µM

COC(=O)Cn1c(=O)oc2nc(-c3ccccc3)cc(C(F)(F)F)c21
inactive: 786-0 > 100 µM | A498 > 100 µM | A549 82 µM | ACHN > 100 µM | BT-549 > 100 µM | CAKI-1 > 100 µM | COLO 205 > 100 µM | DU-145 > 100 µM | EKVX 70.6 µM | HCC 2998 > 100 µM | HCT-116 42.9 µM | HOP-62 > 100 µM | HOP-92 27.2 µM | HT-29 32.8 µM | IGROV-1 66.1 µM | KM12 69.8 µM | M14 > 100 µM | MCF7 > 100 µM | MDA-MB-231 > 100 µM | MDA-MB-435 49.4 µM | MDA-N > 100 µM | MOLT-4 23.6 µM | NCI-H226 35.8 µM | NCI-H23 > 100 µM | NCI-H460 > 100 µM | NCI-H522 25.3 µM | NCI/ADR-RES 23.8 µM | OVCAR-3 75.3 µM | OVCAR-4 86.3 µM | OVCAR-5 > 100 µM | OVCAR-8 18.3 µM | PC-3 > 100 µM | RPMI-8226 27.5 µM | RXF 393 > 100 µM | SF-268 > 100 µM | SF-295 45.3 µM | SF-539 > 100 µM | SK-MEL-28 24.4 µM | SK-MEL-2 > 100 µM | SK-MEL-5 26.7 µM | SK-OV-3 > 100 µM | SN12C 56.6 µM | SNB-19 > 100 µM | SNB-75 > 100 µM | SR 62.2 µM | SW-620 73.1 µM | T47D > 100 µM | TK-10 > 100 µM | U-251 61.2 µM | UACC-257 95.9 µM | UACC-62 > 100 µM | UO-31 > 100 µM
> 100 µM: HCT-15
